Test results published in US8697877B2, “Oxyindole derivatives with motilin receptor agonistic activity” (RaQualia Pharma Inc., priority 2009, dated 2014).

Each compound was assayed against T1, human motilin receptor (GPR38) (Homo sapiens, UniProt O43193) (assay: GPR38 (Motilin Receptor) Functional Assay, NFAT-beta-lactamase reporter in CHO-K1 cells). Settings: not given.
T1 construct: expressed in transfected cells; host or cells: CHO-K1
T1 sequence (O43193 whole entry): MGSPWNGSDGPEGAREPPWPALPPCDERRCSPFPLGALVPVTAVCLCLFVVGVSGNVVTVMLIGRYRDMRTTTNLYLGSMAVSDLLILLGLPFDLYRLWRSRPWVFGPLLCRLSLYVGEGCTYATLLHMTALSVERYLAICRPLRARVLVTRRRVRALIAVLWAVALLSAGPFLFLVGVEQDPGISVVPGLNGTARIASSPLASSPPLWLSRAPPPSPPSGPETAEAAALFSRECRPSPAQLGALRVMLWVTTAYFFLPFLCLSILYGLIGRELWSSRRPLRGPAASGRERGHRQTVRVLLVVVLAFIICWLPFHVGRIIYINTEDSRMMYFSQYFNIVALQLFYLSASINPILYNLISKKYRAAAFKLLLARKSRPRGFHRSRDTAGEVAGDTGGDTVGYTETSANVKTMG
Assay type: cell-based
Procedure: The potencies and efficacies of the compounds of this invention for GPR38 can be determined by reporter assay performed on the human cloned receptor as described herein.
GPR38 (Motilin Receptor) Functional Assay
A CHO-K1 cell line stably transfected NFAT-beta-lactamase reporter and human motilin receptor gene was used. The cells were cultured in culture medium (Dulbecco's modified eagle medium containing 10% fetal bovine serum, 1 mM sodium pyruvate, 0.1 mM MEM nonessential amino acids, 25 mM HEPES buffer, 50 units/mL penicillin, 50 microg/mL streptomycin, 100 microg/mL zeocin, and 500 microg/mL G418). The cells were harvested with 0.05% trypsin EDTA and centrifuged. The cell pellets were resuspended in the culture medium and plated into a black/clear bottom 384-well plate at a density of 8000 cells per well, then incubated at 37° C. with 5% CO2 for over night (about 20 hours). On the day of assay, the culture medium was aspirated and 20 microL of assay medium (Dulbecco's modified eagle medium containing 100 units/mL penicillin and 100 microg/mL streptomycin) was added to each well, then the cell plates were placed in incubator at 37° C. with 5% CO2 for 1.5 hours. Compounds were prepared in 100% DMSO and these were diluted to 5× of final concentration with assay buffer (Hanks balanced salt solution, 20 mM HEPES, and 0.1% BSA), then dispensed into 384-well plate (5 microL/well). After incubation at 37° C. with 5% CO2 for 4.5 hours, CCF4-AM loading solution (Invitrogen Corp.) was added to each well. After incubation for 2 hours at room temperature, fluorescence intensities were measured by using plate reader FDSS (Hamamatsu Photonics K. K.) with excitation 400 nm, emission 465 nm/540 nm. Agonistic activity (EC50) was calculated from the sigmoidal dose-response curve using GraphPad Prism software (GraphPad Software, Inc.).
`CC1(C)C(=O)N(C2CCN(C(=O)[C@H](Cc3ccccc3F)NC(=O)[C@@H]3CCCNC3)CC2)c2ccccc21` [Example 83, (R)-N-((S)-1-(4-(3,3-dimethyl-2-oxoindolin-1-yl)piperidin-1-yl)-3-(2-fluorophenyl)-1-oxo-propan-2-yl)piperidine-3-carboxamide] was tested, and the EC50 was no more than 10 nM. For `CC1(C)C(=O)N(C2CCN(C(=O)[C@H](Cc3ccccc3C(F)(F)F)NC(=O)[C@@H]3CCCNC3)CC2)c2ccccc21` [Example 85, (R)-N-((S)-1-(4-(3,3-dimethyl-2-oxoindolin-1-yl)piperidin-1-yl)-1-oxo-3-(2-(trifluoromethyl)phenyl)propan-2-yl) piperidine-3-carboxamide], the EC50 was no more than 10 nM. Work on `CN[C@@H]1CC[C@H](C(=O)N[C@@H](Cc2ccc(F)cc2)C(=O)N2CCC(N3C(=O)C(C)(C)c4ccccc43)CC2)C1` [Example 27, (1S,3R)-N-((S)-1-(4-(3,3-dimethyl-2-oxoindolin-1-yl)piperidin-1-yl)-3-(4-fluorophenyl)-1-oxopropan-2-yl)-3-(methylamino)cyclopentane-carboxamide] yielded an EC50 of no more than 10 nM. `CN[C@@H]1CC[C@H](C(=O)N[C@@H](Cc2ccccc2Cl)C(=O)N2CCC(N3C(=O)C(C)(C)c4ccccc43)CC2)C1` [Example 25, (1S,3R)-N-((S)-3-(2-chlorophenyl)-1-(4-(3,3-dimethyl-2-oxoindolin-1-yl)piperidin-1-yl)-1-oxopropan-2-yl)-3-(methylamino)cyclopentane-carboxamide] was tested, and the EC50 was no more than 10 nM. `CN[C@@H]1CC[C@H](C(=O)N[C@@H](Cc2ccc(C(F)(F)F)cc2)C(=O)N2CCC(N3C(=O)C(C)(C)c4ccccc43)CC2)C1` [Example 36, (1S,3R)-N-((S)-1-(4-(3,3-dimethyl-2-oxoindolin-1-yl)piperidin-1-yl)-1-oxo-3-(4-(trifluoromethyl)phenyl)propan-2-yl)-3-(methylamino)cyclo-pentanecarboxamide] showed an EC50 of no more than 10 nM. `CN[C@@H]1CC[C@H](C(=O)N[C@@H](Cc2ccccc2C)C(=O)N2CCC(N3C(=O)C(C)(C)c4ccccc43)CC2)C1` [Example 26, (1S,3R)-N-((S)-1-(4-(3,3-dimethyl-2-oxoindolin-1-yl)piperidin-1-yl)-1-oxo-3-o-tolylpropan-2-yl)-3-(methyl-amino)cyclopentanecarboxamide] showed an EC50 of no more than 10 nM. `CC1(C)C(=O)N(C2CCN(C(=O)[C@H](CCc3ccccc3)NC(=O)NC[C@H]3CCCN3)CC2)c2ccccc21` [Example 51, 1-((S)-1-(4-(3,3-dimethyl-2-oxo-indolin-1-yl)piperidin-1-yl)-1-oxo-4-phenylbutan-2-yl)-3-((R)-pyrrolidin-2-ylmethyl)urea] gave an EC50 of no more than 10 nM. For `CN[C@@H]1CC[C@H](C(=O)N[C@@H](Cc2ccccc2C(F)(F)F)C(=O)N2CCC(N3C(=O)C(C)(C)c4ccccc43)CC2)C1` [Example 22, (1S,3R)-N-((S)-1-(4-(3,3-dimethyl-2-oxoindolin-1-yl)piperidin-1-yl)-1-oxo-3-(2-(trifluoromethyl)phenyl)propan-2-yl)-3-(methylamino)cyclopentane-carboxamide], the EC50 was no more than 10 nM. For `CC1(C)C(=O)N(C2CCN(C(=O)[C@H](Cc3ccccc3Cl)NC(=O)[C@@H]3CCCNC3)CC2)c2ccccc21` [Example 86, (R)-N-((S)-3-(2-chloro-phenyl)-1-(4-(3,3-dimethyl-2-oxoindolin-1-yl)piperidin-1-yl)-1-oxo-propan-2-yl)piperidine-3-carboxamide], the EC50 was no more than 10 nM. For `CC1(C)C(=O)N(C2CCN(C(=O)[C@H](CCc3ccccc3)NC(=O)N[C@@H]3CCNC3)CC2)c2ccccc21` [Example 52, 1-((S)-1-(4-(3,3-dimethyl-2-oxo-indolin-1-yl)piperidin-1-yl)-1-oxo-4-phenylbutan-2-yl)-3-((R)-pyrrolidin-3-yl)urea], the EC50 was no more than 10 nM. `CC1(C)C(=O)N(C2CCN(C(=O)[C@H](CCc3ccccc3)NC(=O)C3CCNCC3)CC2)c2ccccc21` [Example 10, (S)-N-(1-(4-(3,3-dimethyl-2-oxoindolin-1-yl)piperidin-1-yl)-1-oxo-4-phenylbutan-2-yl)piperidine-4-carboxamide] showed an EC50 of no more than 10 nM. `CN[C@H]1CCN(C(=O)N[C@@H](Cc2ccccc2C(F)(F)F)C(=O)N2CCC(N3C(=O)C(C)(C)c4ccccc43)CC2)C1` [Example 92, (S)-N-((S)-1-(4-(3,3-dimethyl-2-oxoindolin-1-yl)piperidin-1-yl)-1-oxo-3-(2-(trifluoromethyl)phenyl)propan-2-yl)-3-(methylamino)pyrrolidine-1-carboxamide] gave an EC50 of no more than 10 nM. Compound `CNC(C)(C)CC(=O)N[C@@H](CCc1ccccc1)C(=O)N1CCC(N2C(=O)C(C)(C)c3cc(F)ccc32)CC1` [Example 46, (S)-N-(1-(4-(5-fluoro-3,3-dimethyl-2-oxoindolin-1-yl)piperidin-1-yl)-1-oxo-4-phenylbutan-2-yl)-3-methyl-3-(methylamino)butanamide] has an EC50 of no more than 10 nM. For `CC1(C)C(=O)N(C2CCN(C(=O)[C@H](CCc3ccccc3)NC(=O)[C@@H]3CCCNC3)CC2)c2ccccc21` [Example 1, (R)—N—((S)-1-(4-(3,3-dimethyl-2-oxoindolin-1-yl)piperidin-1-yl)-1-oxo-4-phenylbutan-2-yl)piperidine-3-carboxamide], the EC50 was no more than 10 nM. With `CN[C@H]1CCN(C(=O)N[C@@H](Cc2ccc(Cl)cc2)C(=O)N2CCC(N3C(=O)C(C)(C)c4ccccc43)CC2)C1` [Example 94, (S)-N-((S)-3-(4-chloro-phenyl)-1-(4-(3,3-dimethyl-2-oxoindolin-1-yl)piperidin-1-yl)-1-oxopropan-2-yl)-3-(methylamino)pyrrolidine-1-carboxamide] the EC50 was no more than 10 nM. In the case of `CN[C@@H]1CC[C@H](C(=O)N[C@@H](Cc2cccc3ccccc23)C(=O)N2CCC(N3C(=O)C(C)(C)c4ccccc43)CC2)C1` [Example 24, (1S,3R)-N-((S)-1-(4-(3,3-dimethyl-2-oxoindolin-1-yl)piperidin-1-yl)-3-(naphthalen-1-yl)-1-oxopropan-2-yl)-3-(methylamino)cyclopentane-carboxamide], the EC50 is reported as no more than 10 nM. `CC1(C)C(=O)N(C2CCN(C(=O)[C@H](Cc3ccccc3Cl)NC(=O)C3CCNCC3)CC2)c2ccccc21` [Example 79, (S)-N-(3-(2-chlorophenyl)-1-(4-(3,3-dimethyl-2-oxo-indolin-1-yl)piperidin-1-yl)-1-oxopropan-2-yl) piperidine-4-carboxamide] was tested, and the EC50 was no more than 10 nM. In the case of `CC1(C)C(=O)N(C2CCN(C(=O)[C@H](Cc3ccc(Cl)cc3)NC(=O)[C@@H]3CCCNC3)CC2)c2ccccc21` [Example 87, (R)-N-((S)-3-(4-chloro-phenyl)-1-(4-(3,3-dimethyl-2-oxoindolin-1-yl)piperidin-1-yl)-1-oxopropan-2-yl)piperidine-3-carboxamide], the EC50 is reported as no more than 10 nM. In the case of `CN[C@@H]1CC[C@H](C(=O)N[C@@H](CC(C)C)C(=O)N2CCC(N3C(=O)C(C)(C)c4ccccc43)CC2)C1` [Example 33, (1S,3R)-N-((S)-1-(4-(3,3-dimethyl-2-oxoindolin-1-yl)piperidin-1-yl)-4-methyl-1-oxopentan-2-yl)-3-(methylamino) cyclopentanecarboxamide], the EC50 is reported as no more than 10 nM. `CCC1(NC(=O)N[C@@H](CCc2ccccc2)C(=O)N2CCC(N3C(=O)C(C)(C)c4ccccc43)CC2)CCNCC1` [Example 55, (S)-1-(1-(4-(3,3-dimethyl-2-oxo-indolin-1-yl)piperidin-1-yl)-1-oxo-4-phenylbutan-2-yl)-3-(4-ethylpiperidin-4-yl)urea] was tested, and the EC50 was no more than 10 nM. `CC1(NC(=O)N[C@@H](CCc2ccccc2)C(=O)N2CCC(N3C(=O)C(C)(C)c4ccccc43)CC2)CCNCC1` [Example 56, (S)-1-(1-(4-(3,3-dimethyl-2-oxo-indolin-1-yl)piperidin-1-yl)-1-oxo-4-phenylbutan-2-yl)-3-(4-methyl-piperidin-4-yl)urea] showed an EC50 of no more than 10 nM. Work on `CC1(C)C(=O)N(C2CCN(C(=O)[C@H](CCc3ccccc3)NC(=O)NC[C@@H]3CCCN3)CC2)c2ccccc21` [Example 48, 1-((S)-1-(4-(3,3-dimethyl-2-oxo-indolin-1-yl)piperidin-1-yl)-1-oxo-4-phenylbutan-2-yl)-3-((S)-pyrrolidin-2-ylmethyl)urea] yielded an EC50 of no more than 10 nM. For `CC1(C)C(=O)N(C2CCN(C(=O)[C@H](CCc3ccccc3)NC(=O)NC[C@@H]3CCCN3)CC2)c2ccc(F)cc21` [Example 71, 1-((S)-1-(4-(5-fluoro-3,3-dimethyl-2-oxoindolin-1-yl)piperldin-1-yl)-1-oxo-4-phenylbutan-2-yl)-3-((S)-pyrrolidin-2-ylmethyl)urea], the EC50 was no more than 10 nM. Compound `CN(C[C@@H]1CCCN1)C(=O)N[C@@H](CCc1ccccc1)C(=O)N1CCC(N2C(=O)C(C)(C)c3ccccc32)CC1` [Example 50, 3-((S)-1-(4-(3,3-dimethyl-2-oxo-indolin-1-yl)piperidin-1-yl)-1-oxo-4-phenylbutan-2-yl)-1-methyl-1-((S)-pyrrolidin-2-ylmethyl)urea] has an EC50 of no more than 10 nM.

Same assay, conditions: ED50 (nM), Table 15; functional activity toward GPR38 (motilin receptor), (S) versus (R) amino acid linker
With `CC1(C)C(=O)N(C2CCN(C(=O)[C@@H](CCc3ccccc3)NC(=O)[C@@H]3CCCNC3)CC2)c2ccccc21` [Example 98] the EC50 was 6210 nM. Compound `CC1(C)C(=O)N(C2CCN(C(=O)[C@H](CCc3ccccc3)NC(=O)[C@@H]3CCCNC3)CC2)c2ccccc21` [Example 1, (R)—N—((S)-1-(4-(3,3-dimethyl-2-oxoindolin-1-yl)piperidin-1-yl)-1-oxo-4-phenylbutan-2-yl)piperidine-3-carboxamide] has an EC50 of 0.24 nM.
